# Test results published in US20210045385A1, “PYRIDAZINONE-SUBSTITUTED KETOXIMES AS HERBICIDES” (FMC Corporation, priority 2018, published 2021).
# Experiments:
# Assay type in all cases: in vivo
# [1] = system: Italian ryegrass (Lolium multiflorum); assay: Test A preemergence, visual plant response rating; settings: approx. 10 days
# How it was run: (§1)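 Greenhouse pot test in loam–sand soil mix: compound in a surfactant-containing non-phytotoxic solvent applied preemergence (directed soil spray) or postemergence (one- to two-leaf plants, 2–10 cm). Injury scored visually after ~10 days, 0–100.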
# [2] = system: barnyardgrass (Echinochloa crus-galli); assay: Test A preemergence, visual plant response rating; settings: approx. 10 days
# How it was run: as §1
# [3] = system: foxtail, green (green foxtail, Setaria viridis); assay: Test A preemergence, visual plant response rating; settings: approx. 10 days
# How it was run: as §1
# kochia (Kochia scoparia) [4] = assay: Test A preemergence, visual plant response rating; settings: approx. 10 days
# How it was run: as §1
# [5] = system: pigweed (Amaranthus retroflexus); assay: Test A preemergence, visual plant response rating; settings: approx. 10 days
# How it was run: as §1
# [6] = system: ragweed (common ragweed, Ambrosia elatior); assay: Test A preemergence, visual plant response rating; settings: approx. 10 days
# How it was run: as §1
# [7] = system: Italian ryegrass (Lolium multiflorum); assay: Test A postemergence, visual plant response rating; settings: for Ryegrass, Italian plant response rating (0 to 100 scale): 500 g ai/ha, postemergence, 0 is no effect, 100 is complete control; for Ryegrass, Italian plant response rating: Postemergence, 125 g ai/ha, 0 to 100 scale (0 no effect, 100 complete control)
# How it was run: as §1
# [8] = system: barnyardgrass (Echinochloa crus-galli); assay: Test A postemergence, visual plant response rating; settings: for Barnyardgrass plant response rating (0 to 100 scale): 500 g ai/ha, postemergence, 0 is no effect, 100 is complete control; for Barnyardgrass plant response rating: Postemergence, 125 g ai/ha, 0 to 100 scale (0 no effect, 100 complete control)
# How it was run: as §1
# [9] = system: blackgrass (Alopecurus myosuroides); assay: Test A postemergence, visual plant response rating; settings: for Blackgrass plant response rating (0 to 100 scale): 500 g ai/ha, postemergence, 0 is no effect, 100 is complete control; for Blackgrass plant response rating: Postemergence, 125 g ai/ha, 0 to 100 scale (0 no effect, 100 complete control)
# How it was run: as §1
# corn (Zea mays) = assay: Test A postemergence, visual plant response rating; settings: for Corn plant response rating (0 to 100 scale): 500 g ai/ha, postemergence, 0 is no effect, 100 is complete control; for Corn plant response rating: Postemergence, 125 g ai/ha, 0 to 100 scale (0 no effect, 100 complete control)
# How it was run: as §1
# [10] = system: foxtail, green (green foxtail, Setaria viridis); assay: Test A postemergence, visual plant response rating; settings: for Foxtail, Green plant response rating (0 to 100 scale): 500 g ai/ha, postemergence, 0 is no effect, 100 is complete control; for Foxtail, Green plant response rating: Postemergence, 125 g ai/ha, 0 to 100 scale (0 no effect, 100 complete control)
# How it was run: as §1
# [11] = system: galium (catchweed bedstraw, Galium aparine); assay: Test A postemergence, visual plant response rating; settings: for Galium plant response rating (0 to 100 scale): 500 g ai/ha, postemergence, 0 is no effect, 100 is complete control; for Galium plant response rating: Postemergence, 125 g ai/ha, 0 to 100 scale (0 no effect, 100 complete control)
# How it was run: as §1
# kochia (Kochia scoparia) [12] = assay: Test A postemergence, visual plant response rating; settings: for Kochia plant response rating (0 to 100 scale): 500 g ai/ha, postemergence, 0 is no effect, 100 is complete control; for Kochia plant response rating: Postemergence, 125 g ai/ha, 0 to 100 scale (0 no effect, 100 complete control)
# How it was run: as §1
# [13] = system: pigweed (Amaranthus retroflexus); assay: Test A postemergence, visual plant response rating; settings: for Pigweed plant response rating (0 to 100 scale): 500 g ai/ha, postemergence, 0 is no effect, 100 is complete control; for Pigweed plant response rating: Postemergence, 125 g ai/ha, 0 to 100 scale (0 no effect, 100 complete control)
# How it was run: as §1
# [14] = system: ragweed (common ragweed, Ambrosia elatior); assay: Test A postemergence, visual plant response rating; settings: for Ragweed plant response rating (0 to 100 scale): 500 g ai/ha, postemergence, 0 is no effect, 100 is complete control; for Ragweed plant response rating: Postemergence, 125 g ai/ha, 0 to 100 scale (0 no effect, 100 complete control)
# How it was run: as §1
# [15] = system: wheat (Triticum aestivum); assay: Test A postemergence, visual plant response rating; settings: for Wheat plant response rating (0 to 100 scale): 500 g ai/ha, postemergence, 0 is no effect, 100 is complete control; for Wheat plant response rating: Postemergence, 125 g ai/ha, 0 to 100 scale (0 no effect, 100 complete control)
# How it was run: as §1
# [16] = system: barnyardgrass (Echinochloa crus-galli); assay: Test B flooded paddy test, visual plant response rating; settings: 250 g ai/ha, Flood, applied to paddy water, 2-leaf stage, evaluated after 13 to 15 days
# How it was run: (§2)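 Plants were raised to the 2-leaf stage, then pots were flooded to 3 cm above the soil and test compound was applied directly into the paddy water. Water depth was held for the whole test; after 13 to 15 days in a greenhouse, responses were scored visually against controls.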
# [17] = system: ducksalad (Heteranhera limosa); assay: as above; settings: 250 g ai/ha, Flood, applied to paddy water, 2-leaf stage, evaluated after 13 to 15 days
# How it was run: as §2
# rice (Oryza sativa) = assay: as above; settings: 250 g ai/ha, Flood, applied to paddy water, 2-leaf stage, evaluated after 13 to 15 days
# How it was run: as §2
# [18] = system: sedge, umbrella (small-flower umbrella sedge, Cyperus difformis); assay: as above; settings: 250 g ai/ha, Flood, applied to paddy water, 2-leaf stage, evaluated after 13 to 15 days
# How it was run: as §2
Structure (SMILES),"Ryegrass, Italian plant response rating (0 to 100 scale) ([1]; 125 g ai/ha Preemergence)","Ryegrass, Italian plant response rating (0 to 100 scale) ([1]; 500 g ai/ha Preemergence)",Barnyardgrass plant response rating (0 to 100 scale) ([2]; 125 g ai/ha Preemergence),Barnyardgrass plant response rating (0 to 100 scale) ([2]; 500 g ai/ha Preemergence),"Foxtail, Green plant response rating (0 to 100 scale) ([3]; 125 g ai/ha Preemergence)","Foxtail, Green plant response rating (0 to 100 scale) ([3]; 500 g ai/ha Preemergence)",Kochia plant response rating (0 to 100 scale) (kochia (Kochia scoparia) [4]; 125 g ai/ha Preemergence),Kochia plant response rating (0 to 100 scale) (kochia (Kochia scoparia) [4]; 500 g ai/ha Preemergence),Pigweed plant response rating (0 to 100 scale) ([5]; 125 g ai/ha Preemergence),Pigweed plant response rating (0 to 100 scale) ([5]; 500 g ai/ha Preemergence),Ragweed plant response rating (0 to 100 scale) ([6]; 125 g ai/ha Preemergence),Ragweed plant response rating (0 to 100 scale) ([6]; 500 g ai/ha Preemergence),"Ryegrass, Italian plant response rating (0 to 100 scale) [7]","Ryegrass, Italian plant response rating [7]",Barnyardgrass plant response rating (0 to 100 scale) [8],Barnyardgrass plant response rating [8],Blackgrass plant response rating (0 to 100 scale) [9],Blackgrass plant response rating [9],Corn plant response rating (0 to 100 scale) (corn (Zea mays)),Corn plant response rating (corn (Zea mays)),other results
CO/N=C(/c1cccc(C)c1C)c1c(O)c(C)nn(C)c1=O [Compound 23],40,90,0,20,0,50,0,20,30,80,60,90,50,30,0,0,50,20,0,0,"Foxtail, Green plant response rating (0 to 100 scale) [10]: 0; Foxtail, Green plant response rating [10]: 0; Galium plant response rating (0 to 100 scale) [11]: 60; Galium plant response rating [11]: 50; Kochia plant response rating (0 to 100 scale) (kochia (Kochia scoparia) [12]): 30; Kochia plant response rating (kochia (Kochia scoparia) [12]): 10; Pigweed plant response rating (0 to 100 scale) [13]: 80; Pigweed plant response rating [13]: 20; Ragweed plant response rating (0 to 100 scale) [14]: 50; Ragweed plant response rating [14]: 40; Wheat plant response rating (0 to 100 scale) [15]: 0; Wheat plant response rating [15]: 0; Plant response rating, Barnyardgrass (0 to 100 scale, 0 is no effect, 100 is complete control) [16]: 0; Plant response rating, Ducksalad (0 to 100 scale, 0 is no effect, 100 is complete control) [17]: 0; Plant response rating, Rice (0 to 100 scale, 0 is no effect, 100 is complete control) (rice (Oryza sativa)): 0; Plant response rating, Sedge, Umbrella (0 to 100 scale, 0 is no effect, 100 is complete control) [18]: 0"
CCO/N=C(/c1cccc(C)c1C)c1c(O)c(C)nn(C)c1=O [Compound 24],10,50,0,10,20,60,0,0,20,40,30,60,40,10,30,0,40,10,0,0,"Foxtail, Green plant response rating (0 to 100 scale) [10]: 20; Foxtail, Green plant response rating [10]: 0; Galium plant response rating (0 to 100 scale) [11]: 60; Galium plant response rating [11]: 50; Kochia plant response rating (0 to 100 scale) (kochia (Kochia scoparia) [12]): 20; Kochia plant response rating (kochia (Kochia scoparia) [12]): 0; Pigweed plant response rating (0 to 100 scale) [13]: 60; Pigweed plant response rating [13]: 30; Ragweed plant response rating (0 to 100 scale) [14]: 60; Ragweed plant response rating [14]: 30; Wheat plant response rating (0 to 100 scale) [15]: 0; Wheat plant response rating [15]: 0; Plant response rating, Barnyardgrass (0 to 100 scale, 0 is no effect, 100 is complete control) [16]: 0; Plant response rating, Ducksalad (0 to 100 scale, 0 is no effect, 100 is complete control) [17]: 0; Plant response rating, Rice (0 to 100 scale, 0 is no effect, 100 is complete control) (rice (Oryza sativa)): 0; Plant response rating, Sedge, Umbrella (0 to 100 scale, 0 is no effect, 100 is complete control) [18]: 0"
CCO/N=C(\c1cccc(C)c1C)c1c(O)c(C)nn(C)c1=O [Compound 25],10,30,0,0,0,60,0,0,90,40,30,90,40,10,30,0,40,0,0,0,"Foxtail, Green plant response rating (0 to 100 scale) [10]: 10; Foxtail, Green plant response rating [10]: 0; Galium plant response rating (0 to 100 scale) [11]: 20; Galium plant response rating [11]: 20; Kochia plant response rating (0 to 100 scale) (kochia (Kochia scoparia) [12]): 10; Kochia plant response rating (kochia (Kochia scoparia) [12]): 0; Pigweed plant response rating (0 to 100 scale) [13]: 50; Pigweed plant response rating [13]: 40; Ragweed plant response rating (0 to 100 scale) [14]: 40; Ragweed plant response rating [14]: 20; Wheat plant response rating (0 to 100 scale) [15]: 0; Wheat plant response rating [15]: 0; Plant response rating, Barnyardgrass (0 to 100 scale, 0 is no effect, 100 is complete control) [16]: 0; Plant response rating, Ducksalad (0 to 100 scale, 0 is no effect, 100 is complete control) [17]: 0; Plant response rating, Rice (0 to 100 scale, 0 is no effect, 100 is complete control) (rice (Oryza sativa)): 0; Plant response rating, Sedge, Umbrella (0 to 100 scale, 0 is no effect, 100 is complete control) [18]: 0"
CO/N=C(\c1c(O)c(C)nn(C)c1=O)c1cccc2ccccc12 [Compound 26],70,100,40,80,70,100,50,80,100,100,90,100,70,70,60,50,90,80,30,0,"Foxtail, Green plant response rating (0 to 100 scale) [10]: 80; Foxtail, Green plant response rating [10]: 60; Galium plant response rating (0 to 100 scale) [11]: 100; Galium plant response rating [11]: 90; Kochia plant response rating (0 to 100 scale) (kochia (Kochia scoparia) [12]): 90; Kochia plant response rating (kochia (Kochia scoparia) [12]): 80; Pigweed plant response rating (0 to 100 scale) [13]: 90; Pigweed plant response rating [13]: 60; Ragweed plant response rating (0 to 100 scale) [14]: 100; Ragweed plant response rating [14]: 90; Wheat plant response rating (0 to 100 scale) [15]: 10; Wheat plant response rating [15]: 0; Plant response rating, Barnyardgrass (0 to 100 scale, 0 is no effect, 100 is complete control) [16]: 0; Plant response rating, Ducksalad (0 to 100 scale, 0 is no effect, 100 is complete control) [17]: 0; Plant response rating, Rice (0 to 100 scale, 0 is no effect, 100 is complete control) (rice (Oryza sativa)): 0; Plant response rating, Sedge, Umbrella (0 to 100 scale, 0 is no effect, 100 is complete control) [18]: 0"
